How the values were obtained:
Conditions in all cases: exposure time: 72 h
E13 [1] = patient-derived glioblastoma stem cells of classical subtype; assay: surviving fraction (nuclei count normalised to DMSO); higher = more cells surviving (less toxic)
E21 [2] = patient-derived glioblastoma stem cells of mesenchymal subtype; assay: as above
E28 [3] = patient-derived glioblastoma stem cells of classical subtype; assay: as above
E34 [4] = patient-derived glioblastoma stem cells of proneural subtype; assay: as above
E57 [5] = patient-derived glioblastoma stem cells of mesenchymal subtype; assay: as above
FT3469 [6] = normal neural stem cell line; assay: as above
E13 [7] = assay: phenotypic distance (Euclidean, principal components) from DMSO controls (arbitrary units); higher = stronger morphological change
E21 [8] = assay: as above
E28 [9] = assay: as above
E34 [10] = assay: as above
E57 [11] = assay: as above
FT3469 [12] = assay: as above
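For phenotypic distance (Euclidean, principal components) from DMSO controls in this document: cell Painting imaging in 384-well plates, CellProfiler features reduced to at least 20 principal components, Euclidean distance versus same-plate DMSO vehicle wells (0.1% v/v), median over six images per well.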
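For surviving fraction (nuclei count normalised to DMSO) in this document: nuclei counted by high-content imaging of Hoechst-stained cells in laminin-coated 384-well plates, relative to 0.1% DMSO vehicle wells, with staurosporine as cell-death control.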

CC(C)C[C@H](NC(=O)[C@H](Cc1ccccc1)C[C@@H](O)[C@H](Cc1ccccc1)NC(=O)OC(C)(C)C)C(=O)N[C@@H](Cc1ccccc1)C(N)=O [L-685,458]
Conditions	phenotypic distance	surviving fraction
E13 [1], 4.1 nM	–	1.06
E13 [1], 4.11523 nM	–	1.16
E13 [1], 12.3 nM	–	1.04
E13 [1], 12.34567901 nM	–	1.1
E13 [1], 37 nM	–	1.01
E13 [1], 37.037 nM	–	0.999
E13 [1], 111.1 nM	–	1.18
E13 [1], 111.1111111 nM	–	1.01
E13 [1], 333.3 nM	–	1.02
E13 [1], 333.333 nM	–	1.09
E13 [1], 1000 nM	–	1.14
E13 [1], 3000 nM	–	1.01
E13 [7], 4.1 nM	0.562	–
E13 [7], 4.11523 nM	0.913	–
E13 [7], 12.3 nM	0.877	–
E13 [7], 12.34567901 nM	0.727	–
E13 [7], 37 nM	0.594	–
E13 [7], 37.037 nM	0.991	–
E13 [7], 111.1 nM	0.891	–
E13 [7], 111.1111111 nM	2.26	–
E13 [7], 333.3 nM	0.794	–
E13 [7], 333.333 nM	0.929	–
E13 [7], 1000 nM	1.66	–
E13 [7], 3000 nM	0.881	–
E21 [2], 4.1 nM	–	0.96
E21 [2], 4.11523 nM	–	0.891
E21 [2], 12.3 nM	–	0.969
E21 [2], 12.34567901 nM	–	0.958
E21 [2], 37 nM	–	0.95
E21 [2], 37.037 nM	–	0.941
E21 [2], 111.1 nM	–	1.03
E21 [2], 111.1111111 nM	–	1.03
E21 [2], 333.3 nM	–	0.861
E21 [2], 333.333 nM	–	1.04
E21 [2], 1000 nM	–	1.05
E21 [2], 3000 nM	–	0.948
E21 [8], 4.1 nM	0.782	–
E21 [8], 4.11523 nM	0.593	–
E21 [8], 12.3 nM	0.577	–
E21 [8], 12.34567901 nM	0.764	–
E21 [8], 37 nM	0.535	–
E21 [8], 37.037 nM	0.752	–
E21 [8], 111.1 nM	0.68	–
E21 [8], 111.1111111 nM	0.628	–
E21 [8], 333.3 nM	0.73	–
E21 [8], 333.333 nM	0.786	–
E21 [8], 1000 nM	0.724	–
E21 [8], 3000 nM	0.836	–
E28 [3], 4.1 nM	–	0.997
E28 [3], 4.11523 nM	–	1.1
E28 [3], 12.3 nM	–	1.15
E28 [3], 12.34567901 nM	–	0.885
E28 [3], 37 nM	–	0.825
E28 [3], 37.037 nM	–	1.02
E28 [3], 111.1 nM	–	1.11
E28 [3], 111.1111111 nM	–	0.813
E28 [3], 333.3 nM	–	0.795
E28 [3], 333.333 nM	–	1.02
E28 [3], 1000 nM	–	0.858
E28 [3], 3000 nM	–	0.834
E28 [9], 4.1 nM	0.474	–
E28 [9], 4.11523 nM	0.565	–
E28 [9], 12.3 nM	0.894	–
E28 [9], 12.34567901 nM	0.663	–
E28 [9], 37 nM	0.847	–
E28 [9], 37.037 nM	0.502	–
E28 [9], 111.1 nM	0.482	–
E28 [9], 111.1111111 nM	0.958	–
E28 [9], 333.3 nM	0.937	–
E28 [9], 333.333 nM	0.39	–
E28 [9], 1000 nM	0.79	–
E28 [9], 3000 nM	0.756	–
E34 [4], 4.1 nM	–	0.787
E34 [4], 4.11523 nM	–	0.957
E34 [4], 12.3 nM	–	1.02
E34 [4], 12.34567901 nM	–	0.895
E34 [4], 37 nM	–	0.964
E34 [4], 37.037 nM	–	1.09
E34 [4], 111.1 nM	–	0.946
E34 [4], 111.1111111 nM	–	0.976
E34 [4], 333.3 nM	–	0.746
E34 [4], 333.333 nM	–	1.15
E34 [4], 1000 nM	–	1
E34 [4], 3000 nM	–	0.924
E34 [10], 4.1 nM	1.11	–
E34 [10], 4.11523 nM	0.526	–
E34 [10], 12.3 nM	0.954	–
E34 [10], 12.34567901 nM	0.619	–
E34 [10], 37 nM	0.627	–
E34 [10], 37.037 nM	0.56	–
E34 [10], 111.1 nM	0.75	–
E34 [10], 111.1111111 nM	0.762	–
E34 [10], 333.3 nM	1.1	–
E34 [10], 333.333 nM	0.452	–
E34 [10], 1000 nM	0.948	–
E34 [10], 3000 nM	1.12	–
E57 [5], 4.1 nM	–	1.04
E57 [5], 4.11523 nM	–	0.963
E57 [5], 12.3 nM	–	0.967
E57 [5], 12.34567901 nM	–	0.988
E57 [5], 37 nM	–	0.958
E57 [5], 37.037 nM	–	0.998
E57 [5], 111.1 nM	–	1.01
E57 [5], 111.1111111 nM	–	1.03
E57 [5], 333.3 nM	–	1.08
E57 [5], 333.333 nM	–	0.989
E57 [5], 1000 nM	–	1.04
E57 [5], 3000 nM	–	1
E57 [11], 4.1 nM	0.808	–
E57 [11], 4.11523 nM	1.06	–
E57 [11], 12.3 nM	1.19	–
E57 [11], 12.34567901 nM	0.938	–
E57 [11], 37 nM	1.05	–
E57 [11], 37.037 nM	0.959	–
E57 [11], 111.1 nM	1.22	–
E57 [11], 111.1111111 nM	0.783	–
E57 [11], 333.3 nM	0.893	–
E57 [11], 333.333 nM	1.03	–
E57 [11], 1000 nM	1.1	–
E57 [11], 3000 nM	1.07	–
FT3469 [6], 4.1 nM	–	0.944
FT3469 [6], 4.11523 nM	–	0.979
FT3469 [6], 12.3 nM	–	1.02
FT3469 [6], 12.34567901 nM	–	0.858
FT3469 [6], 37 nM	–	0.9
FT3469 [6], 37.037 nM	–	1.03
FT3469 [6], 111.1 nM	–	0.901
FT3469 [6], 111.1111111 nM	–	0.984
FT3469 [6], 333.3 nM	–	0.882
FT3469 [6], 333.333 nM	–	0.884
FT3469 [6], 1000 nM	–	0.867
FT3469 [6], 3000 nM	–	0.838
FT3469 [12], 4.1 nM	0.822	–
FT3469 [12], 4.11523 nM	0.544	–
FT3469 [12], 12.3 nM	0.633	–
FT3469 [12], 12.34567901 nM	0.898	–
FT3469 [12], 37 nM	0.582	–
FT3469 [12], 37.037 nM	0.598	–
FT3469 [12], 111.1 nM	1.41	–
FT3469 [12], 111.1111111 nM	0.791	–
FT3469 [12], 333.3 nM	0.871	–
FT3469 [12], 333.333 nM	0.681	–
FT3469 [12], 1000 nM	0.906	–
FT3469 [12], 3000 nM	1.06	–

Reference: the supplement of paper PMC13207355
